We go through 22 compounds from patent US10670605B2, “Cysteine reactive probes and uses thereof” (The Scripps Research Institute, priority 2015, dated 2020).

The target of one assay is O114933_C98 (Homo sapiens, UniProt O14933). Nature of the assay: Competitive isoTOP-ABPP, cell lysates. In kind it is binding. Conditions: 500 μm.
Another assay deals with PES1 C361 (O00541) (Homo sapiens, UniProt O00541). As to the kind of experiment: Competitive isoTOP-ABPP, cell lysates. In kind it is binding.
The target of another assay is PES1 C272 (O00541) (Homo sapiens, UniProt O00541). As to the kind of experiment: Competitive isoTOP-ABPP, cell lysates. As to conditions: 500 μM, invitro. It is filed as binding.
Assay [1] deals with T1, cysteines in MDA-MB-231 and Ramos cells (Homo sapiens, UniProt Q9BR61).
T1 sequence (Q9BR61 1-282): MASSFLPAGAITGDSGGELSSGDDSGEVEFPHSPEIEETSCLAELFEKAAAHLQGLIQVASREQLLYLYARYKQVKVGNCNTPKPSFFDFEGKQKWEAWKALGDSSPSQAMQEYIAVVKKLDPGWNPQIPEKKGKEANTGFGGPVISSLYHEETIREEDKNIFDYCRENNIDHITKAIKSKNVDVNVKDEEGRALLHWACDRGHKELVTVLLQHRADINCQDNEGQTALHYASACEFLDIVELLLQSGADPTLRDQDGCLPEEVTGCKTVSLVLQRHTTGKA
As to the kind of experiment: Competitive isoTOP-ABPP in situ (fragment-treated cells). It is filed as cell-based. As to conditions: 200 μM, insitu.

The target in assay [2] is cysteines in MDA-MB-231 and Ramos cells (Homo sapiens, UniProt Q9Y5T5). The assay is described as above. It is filed as cell-based. As to conditions: 200 μM, insitu.
Assay [3] has as its target T2, cysteines in MDA-MB-231 and Ramos cells (Homo sapiens, UniProt Q9BTE3).
T2 sequence (Q9BTE3 1-642): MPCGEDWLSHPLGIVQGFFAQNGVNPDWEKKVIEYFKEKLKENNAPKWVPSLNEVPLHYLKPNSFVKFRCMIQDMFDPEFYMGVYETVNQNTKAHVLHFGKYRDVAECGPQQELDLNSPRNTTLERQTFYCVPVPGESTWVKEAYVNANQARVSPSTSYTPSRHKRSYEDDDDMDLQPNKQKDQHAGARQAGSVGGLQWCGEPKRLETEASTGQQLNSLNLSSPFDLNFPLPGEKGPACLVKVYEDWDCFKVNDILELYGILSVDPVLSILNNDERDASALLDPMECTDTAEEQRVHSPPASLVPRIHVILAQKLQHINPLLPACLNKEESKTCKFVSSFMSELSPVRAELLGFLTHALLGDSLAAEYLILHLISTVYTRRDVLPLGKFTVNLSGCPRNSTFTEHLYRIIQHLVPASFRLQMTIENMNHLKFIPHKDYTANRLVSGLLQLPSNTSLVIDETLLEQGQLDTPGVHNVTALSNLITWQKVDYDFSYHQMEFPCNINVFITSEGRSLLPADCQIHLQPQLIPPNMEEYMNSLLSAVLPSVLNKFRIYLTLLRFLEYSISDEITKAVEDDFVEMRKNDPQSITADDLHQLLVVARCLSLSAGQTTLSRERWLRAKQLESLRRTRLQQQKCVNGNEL
Described as above. It is filed as cell-based. As to conditions: 200 μM, insitu.

For the next assay, the target named is O00541_C272 (Homo sapiens, UniProt O00541). Nature of the assay: Competitive isoTOP-ABPP, cell lysates. It is filed as binding. Conditions: 500 μm.

Structures are written as SMILES.

Sequence of O114933_C98 (O14933 whole entry): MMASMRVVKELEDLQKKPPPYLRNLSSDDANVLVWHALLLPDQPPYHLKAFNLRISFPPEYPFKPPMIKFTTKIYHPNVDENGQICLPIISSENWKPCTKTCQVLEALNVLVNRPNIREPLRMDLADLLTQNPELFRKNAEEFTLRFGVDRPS
Sequence of PES1 C272 (O00541) (O00541 whole entry, looked up, one chain of several): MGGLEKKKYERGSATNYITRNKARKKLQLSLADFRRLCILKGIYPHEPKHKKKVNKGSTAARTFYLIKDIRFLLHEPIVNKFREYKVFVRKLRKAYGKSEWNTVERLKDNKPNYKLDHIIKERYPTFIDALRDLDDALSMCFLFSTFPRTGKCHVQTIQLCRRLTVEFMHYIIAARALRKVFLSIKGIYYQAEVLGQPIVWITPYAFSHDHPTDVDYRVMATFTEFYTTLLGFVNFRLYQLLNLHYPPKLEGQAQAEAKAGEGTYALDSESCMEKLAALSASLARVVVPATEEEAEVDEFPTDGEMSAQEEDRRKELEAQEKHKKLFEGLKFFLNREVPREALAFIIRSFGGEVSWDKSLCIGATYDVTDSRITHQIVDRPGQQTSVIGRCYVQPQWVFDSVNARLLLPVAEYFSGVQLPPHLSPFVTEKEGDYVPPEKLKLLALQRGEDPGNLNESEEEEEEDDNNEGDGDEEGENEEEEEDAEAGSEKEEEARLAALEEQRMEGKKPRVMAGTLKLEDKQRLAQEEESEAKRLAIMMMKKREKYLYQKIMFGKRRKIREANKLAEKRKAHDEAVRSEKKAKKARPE
Sequence of O00541_C272 (O00541 whole entry, looked up): as the sequence (O00541 whole entry, looked up, one chain of several) above
Sequence of PES1 C361 (O00541) (O00541 whole entry, looked up, one chain of several): as above
Sequence of cysteines in MDA-MB-231 and Ramos cells (Homo sapiens, UniProt Q9Y5T5) (Q9Y5T5 whole entry): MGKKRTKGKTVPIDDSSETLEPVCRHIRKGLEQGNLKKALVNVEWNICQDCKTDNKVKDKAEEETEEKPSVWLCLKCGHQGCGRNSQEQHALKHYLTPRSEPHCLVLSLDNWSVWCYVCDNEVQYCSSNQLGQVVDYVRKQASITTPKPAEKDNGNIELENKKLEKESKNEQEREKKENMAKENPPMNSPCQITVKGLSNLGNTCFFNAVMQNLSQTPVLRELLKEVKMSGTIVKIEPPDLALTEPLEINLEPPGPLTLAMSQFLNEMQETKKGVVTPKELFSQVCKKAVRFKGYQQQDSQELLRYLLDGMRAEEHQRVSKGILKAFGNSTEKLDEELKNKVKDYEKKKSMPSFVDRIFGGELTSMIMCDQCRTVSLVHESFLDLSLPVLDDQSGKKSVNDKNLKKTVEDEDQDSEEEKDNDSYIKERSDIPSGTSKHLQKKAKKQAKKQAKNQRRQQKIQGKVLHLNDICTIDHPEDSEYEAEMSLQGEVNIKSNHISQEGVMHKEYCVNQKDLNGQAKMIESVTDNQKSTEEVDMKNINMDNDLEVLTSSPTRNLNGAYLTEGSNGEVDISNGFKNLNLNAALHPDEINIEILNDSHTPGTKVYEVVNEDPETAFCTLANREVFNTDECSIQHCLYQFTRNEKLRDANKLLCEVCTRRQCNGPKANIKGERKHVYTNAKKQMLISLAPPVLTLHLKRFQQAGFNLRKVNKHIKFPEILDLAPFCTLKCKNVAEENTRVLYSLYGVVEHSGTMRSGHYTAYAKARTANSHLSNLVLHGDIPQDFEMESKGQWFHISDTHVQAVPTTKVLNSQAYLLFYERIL

Take `O=C(CCl)NC1C(O)OC(CO)C(O)C1O` (mixture of isomers) [compound 44]: the “isoTOP-ABPP reactivity profile ratio, O114933_C98” value at O114933_C98 (in-vitro_ramos_231) was found to be 2.0. Consider `O=C(CCl)Nc1cc(C(F)(F)F)cc(C(F)(F)F)c1` [compound 3], for which the “R value (DMSO/fragment)” value on PES1 C361 (O00541) (500 μM, in vitro, MDA-MB-231) came to 1.5. Take `C=CC(=O)N(c1ccccc1)c1ccc(Br)cc1` [compound 5]: the “isoTOP-ABPP ratio, O00541_C272” value on PES1 C272 (O00541) (ramos) came out at 12.3. `O=C(CCl)N1CCN(S(=O)(=O)c2ccccc2F)CC1` [compound 10]: at PES1 C272 (O00541) (ramos), the “isoTOP-ABPP ratio, O00541_C272” value was determined as 2.2. On the same count and under the same terms, the value for `Cn1cc(S(=O)(=O)N2CCOCC2)cc1C(=O)NC(=O)CCl` [compound 11] was 4.2.

For the compound `O=C(CCl)NCCc1c[nH]c2ccccc12` [compound 13], the “isoTOP-ABPP ratio, cysteine Q9BR61_C267” value in assay [1] (231) was determined as 1.1. Moreover, in assay [2] (ramos), the “isoTOP-ABPP ratio, cysteine Q9Y5T5_C205” value was determined as 20.0. Besides, the “isoTOP-ABPP ratio, O00541_C272” value at PES1 C272 (O00541) (231) was determined as 1.7.

Regarding `O=C(CCl)N1CCC(C(O)(c2ccccc2)c2ccccc2)CC1` [compound 20], the “isoTOP-ABPP ratio (reactivity profile), O00541_C361” value on PES1 C361 (O00541) (500 μm in-vitro ramos) and at PES1 C361 (O00541) (500 μm in-vitro ramos_231) was 20.0 each time. `O=C(CCl)NC12CC3CC(CC(C3)C1)C2` [compound 21]: the “isoTOP-ABPP ratio, cysteine Q9Y5T5_C205” value in assay [2] (231) was 0.9.

With `N#C/C(=C\c1cc(C(F)(F)F)cc(C(F)(F)F)c1)C(N)=O` [compound 23], the “isoTOP-ABPP ratio (reactivity profile), O00541_C361” value at PES1 C361 (O00541) (500 μm in-vitro ramos) is given as 1.1. Consider `CC(C)CCOCCNC(=O)CCl` [compound 27], for which the “isoTOP-ABPP ratio, Q9Y5T5_C205” value in assay [2] (231) was 1.2. Consider `COc1ccccc1OCCNC(=O)CCl` [compound 28], for which, in assay [3] (231), the “isoTOP-ABPP ratio Q9BTE3_C325” value worked out at 1.0. With `O=C(CCl)N1CCN(CC(=O)N2CCOCC2)CC1` [compound 29], in assay [1] (ramos), the “isoTOP-ABPP ratio Q9BR61_C267” value is given as 2.5.

`C=CC(=O)N(Cc1cccnc1)c1cc(C(F)(F)F)cc(C(F)(F)F)c1` [compound 31]: the “isoTOP-ABPP ratio Q9BTE3_C325” value in assay [3] (231) was determined as 1.9; in assay [3] (ramos), 3.5. For `O=C(CCl)Nc1ccccc1C1CCCCCC1` [compound 35], the “isoTOP-ABPP reactivity ratio, O00541_C272” value (shortened to “isoTOP-ABPP reactivity ratio”) on O00541_C272 (in-vitro_ramos) is given as 1.2; on O00541_C272 (in-vitro_ramos_231) it was 0.8.

In the case of `C=CC(=O)N1CCC(c2noc3ccc(F)cc23)CC1` [compound 37], the “isoTOP-ABPP reactivity ratio” value at O00541_C272 (in-vitro_ramos) worked out at 1.0. As for `C=CC(=O)Nc1cc(F)c(N2CCN(C(=O)OC(C)(C)C)CC2)c(F)c1` [compound 38], the “isoTOP-ABPP reactivity ratio” value at O00541_C272 (in-vitro_ramos_231) was determined as 1.0. For the same compound, the “isoTOP-ABPP ratio Q9BTE3_C325” value in assay [3] (231) is listed as 2.2. For the same compound, in assay [2] (231), the “isoTOP-ABPP ratio, Q9Y5T5_C205” value is given as 1.5. Turning to `Cc1ccc(C=C(C#N)C(=O)NCCN2CCOCC2)cc1` [compound 41], in assay [1] (231), the “isoTOP-ABPP ratio Q9BR61_C267” value was found to be 0.5. Moreover, the “isoTOP-ABPP ratio Q9BTE3_C325” value in assay [3] (231) turned out to be 0.6. Take `N#CC(=Cc1ccc(-c2ccccc2Cl)o1)C(N)=O` [compound 42]: on O114933_C98 (in-vitro_ramos), the “isoTOP-ABPP reactivity profile ratio, O114933_C98” value was 1.0. For the compound `CC1CCc2ccccc2N1C(=O)CCl` (stereo not shown) [compound 45], in assay [3] (231), the “isoTOP-ABPP ratio Q9BTE3_C325” value is reported as 20.0. Turning to `O=C(CCl)N1CCc2cc(Br)ccc21` [compound 50], the “isoTOP-ABPP reactivity profile ratio, O114933_C98” value on O114933_C98 (in-vitro_ramos_231) is 1.5. With `O=C(CCl)Nc1ccc(-c2ccccc2)cc1` [compound 52], the “isoTOP-ABPP reactivity profile ratio, O114933_C98” value at O114933_C98 (in-vitro_ramos) and on O114933_C98 (in-vitro_ramos_231) was 1.4 in each case. For the compound `C=CC(=O)N1CCC(Cc2ccccc2)CC1` [compound 53], the “isoTOP-ABPP reactivity profile ratio, O114933_C98” value on O114933_C98 (in-vitro_ramos) was found to be 1.0.
